# Data published in patent US10688080B2, “Compositions, methods of use, and methods of treatment” (priority 2016, dated 2020).
# Experiments:
# [1] = system: BL21(DE3) E. coli expressing KPC-2; experiment: MIC studies, synergy with imipenem (broth microdilution); format: cell-based; details: Escherichia coli, 24 h, read-out: MIC of imipenem
# Method: Compounds were tested for synergy with the carbapenem antibiotic, imipenem, against BL21(DE3) E. coli expressing KPC-2. MIC values were determined with the Mueller-Hinton broth microdilution method. To test for inhibitory activity, compounds were dissolved in DMSO and dilutions were carried out using LB broth. Compounds were test at 100 μM with increasing concentrations of imipenem. […] After inoculation, the plates are incubated at 37 C for 24 hours. The MIC of the compounds are then determined visually.
# CTX-M14 = CTX-M14 (Escherichia coli, UniProt Q9L5C7); experiment: Steady-state kinetic nitrocefin hydrolysis inhibition, CTX-M14; format: biochemical; details: for Ki: nitrocefin 50 μM, 1 nM enzyme, Ki=IC50/([S]/Km+1)
# Method: (§1) Steady-state kinetic parameters were determined by using a Biotek Cytation 5 Cell Imaging Multi-Mode Reader. For KPC-2 and CTX M-14, each assay was performed in 100 mM Tris-HCl pH 7.0, 0.01% Triton X-100 at 37 C. Vmax and Km were determined from initial steady-state velocities from nitrocefin read at a wavelength of 486 nm. The kinetic parameters were obtained using the non-linear portion of the data to the Henri-Michaelis (equation 1) using Gera version 2.07. V=Vmax[S]/(Km+[S]) (Equation 1)
# (§2) IC50, defined as the inhibitor concentration that results in a 50% reduction of nitrocefin (20 μM for KPC-2 and 50 μM for CTX M-14) hydrolysis was determined by measurements of initial velocities after mixing 1 nM of KPC-2 or CTX M-14 with increasing concentrations of inhibitors. The inhibition constant (Ki) was calculated according to equation 2: Ki=IC50/([S]/Km+1) (Equation 2)
# KPC-2 = target: T1, KPC-2 (Klebsiella pneumoniae, UniProt Q9F663); experiment: Steady-state kinetic nitrocefin hydrolysis inhibition, KPC-2; format: biochemical
# T1 construct: made in house; host or cells: bacteria, IPTG-induced
# Method: For His tag KPC-2 beta-lactamase, bacteria were grown overnight at 30 C with shaking in 50 mL LB broth supplemented with 50 μg/mL kanamycin. Two liters of LB broth supplemented with 50 μg/mL kanamycin, 200 mM sorbitol, and 5 mM betaine were each inoculated with 10 mL of overnight bacterial culture. Cultures were then grown at 37 C until an optical density at 600 nm (OD600) of 0.6-0.7. Protein expression was then initiated by the addition of IPTG (final concentration 0.5 mM), followed by growth for 16 hr at 20 C. Cells were pelleted by centrifugation and stored at −80 C until further use. The his tag KPC-2 beta-lactamase was purified by nickel affinity chromatography and gel filtration. Briefly, the cell pellets were thawed and re-suspended in 40 mL of buffer A (20 mM Tris-HCl pH 8.0, 300 mM NaCl, 20 mM imidazole) with one complete protease inhibitor cocktail tablet (Roche) and disrupted by sonication, followed by ultracentrifugation to clarify the lysate. After ultracentrifugation, the supernatant was passed through a 0.22 μm filter before loading onto a 5 mL HisTrap HP affinity column (GE Healthcare Life Sciences, USA) pre-equilibrated with buffer A. His tag KPC-2 was eluted by a linear imidazole gradient (20 mM to 500 mM). Fractions were analyzed by SDS-PAGE. Fractions containing his tag KPC-2 were concentrated using a 10 k NMWL Amicon Ultra-15 Centrifugal Filter Unit. Concentrated his tag KPC-2 was then loaded onto a superdex 75 gel filtration column (GE Healthcare Life Sciences) pre-equilibrated with 20 mM Tris-HCl pH 8.0, 300 mM NaCl. Protein concentration was determined by absorbance at 280 using an extinction coefficient of 39,545.
# as §1, §2
# NDM-1 = target: T2, NDM-1 (Klebsiella pneumoniae, UniProt C7C422); experiment: Steady-state kinetic nitrocefin hydrolysis inhibition, NDM-1; format: biochemical; details: for Ki: nitrocefin 10 μM, 1 μM ZnSO4, Ki=IC50/([S]/Km+1)
# T2 construct: SUMO tag (cleaved yes); made in house; host or cells: bacteria, IPTG-induced
# Method: For sumo tag NDM-1 metallo-beta-lactamase, bacteria were grown overnight at 30 C with shaking in 50 mL LB broth supplemented with 100 μg/mL ampicillin. Two liters of LB broth supplemented with 100 μg/mL ampicillin were each inoculated with 10 mL of overnight bacterial culture. Cultures were then grown at 37 C until an optical density at 600 nm (OD600) of 0.6-0.7. Protein expression was then initiated by the addition of IPTG (final concentration 0.5 mM), followed by growth for 16 hr at 20 C. Cells were pelleted by centrifugation and stored at −80 C until further use. The sumo tag NDM-1 beta-lactamase was purified by nickel affinity chromatography and gel filtration. Briefly, the cell pellets were thawed and re-suspended in 40 mL of buffer A (20 mM HEPES pH 7.4, 0.5 M NaCl, 20 mM imidazole) with one complete protease inhibitor cocktail tablet (Roche) and disrupted by sonication, followed by ultracentrifugation to clarify the lysate. After ultracentrifugation, the supernatant was passed through a 0.22 μm filter before loading onto a 5 mL HisTrap HP affinity column (GE Healthcare Life Sciences, USA) pre-equilibrated with buffer A. Sumo tag NDM-1 was eluted by a linear imidazole gradient (20 mM to 500 mM). Fractions were analyzed by SDS-PAGE. Fractions containing sumo tag NDM-1 were buffer exchanged into 20 mM HEPES pH 7.0, 100 mM NaCl. Cleavage of the sumo tag was then carried out with ULP1 protease overnight at room temperature and then concentrated using a 10 k NMWL Amicon Ultra-15 Centrifugal Filter Unit. The sample was then loaded back onto a nickel affinity column and the flow through was collected, containing the untagged NDM-1. NDM-1 was concentrated and loaded onto a gel filtration column (GE Healthcare Life Sciences) pre-equilibrated with 20 mM HEPES pH 7.0, 100 mM NaCl. Protein concentration was determined by absorbance at 280 using an extinction coefficient of 27,960.
# as §1, §2
# For NDM-1, the procedures were the same as above except the assay was performed in 100 mM Tris-HCl pH 7.0, 1 μM ZnSO4, 0.01% Triton X-100. In addition, a nitrocefin concentration of 10 μM was used.
# OXA-48 = OXA-48 (Klebsiella pneumoniae, UniProt Q6XEC0); experiment: Steady-state kinetic β-lactamase inhibition, OXA-48; format: biochemical; details: read-out: OXA-48 % inhibition at stated concentration
# SHV-2 = SHV-2 (Klebsiella pneumoniae, UniProt P0A9Z8); experiment: Steady-state kinetic β-lactamase inhibition, SHV-2; format: biochemical
# SHV-2, sequence (P0A9Z8 22-286): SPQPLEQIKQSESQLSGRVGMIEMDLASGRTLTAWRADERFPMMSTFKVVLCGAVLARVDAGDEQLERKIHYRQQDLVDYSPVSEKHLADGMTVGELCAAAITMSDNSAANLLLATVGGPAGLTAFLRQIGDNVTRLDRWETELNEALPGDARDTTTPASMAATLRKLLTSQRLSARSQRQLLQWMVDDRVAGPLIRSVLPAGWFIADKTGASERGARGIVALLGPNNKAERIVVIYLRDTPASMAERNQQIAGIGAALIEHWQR
# OXA-48, sequence (Q6XEC0 23-265 limits assumed): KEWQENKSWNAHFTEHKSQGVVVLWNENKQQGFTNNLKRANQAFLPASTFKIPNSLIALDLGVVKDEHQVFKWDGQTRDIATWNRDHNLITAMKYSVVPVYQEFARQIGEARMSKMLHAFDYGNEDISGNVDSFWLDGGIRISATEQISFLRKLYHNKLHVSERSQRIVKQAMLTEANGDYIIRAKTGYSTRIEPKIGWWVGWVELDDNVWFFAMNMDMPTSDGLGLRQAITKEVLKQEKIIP
# T2 sequence (C7C422 29-270, looked up, species assumed): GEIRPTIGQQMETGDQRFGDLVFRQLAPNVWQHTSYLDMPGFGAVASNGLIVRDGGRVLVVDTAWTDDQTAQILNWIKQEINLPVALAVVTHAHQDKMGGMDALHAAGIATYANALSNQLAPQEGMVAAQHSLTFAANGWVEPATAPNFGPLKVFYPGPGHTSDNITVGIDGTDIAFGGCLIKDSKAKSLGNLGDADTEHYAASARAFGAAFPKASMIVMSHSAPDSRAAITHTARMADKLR
# T1 sequence (Q9F663 25-293 limits assumed): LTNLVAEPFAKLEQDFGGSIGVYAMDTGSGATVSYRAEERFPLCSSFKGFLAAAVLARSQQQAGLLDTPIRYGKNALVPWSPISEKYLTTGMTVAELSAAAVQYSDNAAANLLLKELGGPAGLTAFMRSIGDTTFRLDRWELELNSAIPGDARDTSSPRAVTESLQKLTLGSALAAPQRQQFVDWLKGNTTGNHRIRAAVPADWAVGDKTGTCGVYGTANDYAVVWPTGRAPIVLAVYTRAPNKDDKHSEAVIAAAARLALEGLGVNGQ
# CTX-M14, sequence (Q9L5C7 29-291, species assumed): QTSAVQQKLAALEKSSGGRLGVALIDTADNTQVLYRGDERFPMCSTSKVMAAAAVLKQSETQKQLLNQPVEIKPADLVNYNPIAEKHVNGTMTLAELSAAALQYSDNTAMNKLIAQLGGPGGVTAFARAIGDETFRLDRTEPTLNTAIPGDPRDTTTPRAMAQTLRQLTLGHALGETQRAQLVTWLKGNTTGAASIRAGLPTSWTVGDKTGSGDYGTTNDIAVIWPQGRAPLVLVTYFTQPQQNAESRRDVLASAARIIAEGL
compound,measurement,setting,value
"C[C@@H](O)[C@H]1C(=O)N2C(C(=O)O)=C(SCCN=CN)C[C@H]12 [Imipenem, imipenem]",MIC,[1],2 µg/mL
O=C(Nc1nnn[nH]1)[C@H]1CCN(C(=O)c2cccc(C(F)(F)F)c2)C1 [Compound 38],Ki,CTX-M14,3000 µM
same,Ki,KPC-2,2000 µM
same,NDM-1 % inhibition at stated concentration,NDM-1; at 3500 (uM),40% at 3500
O=C(Nc1nc(C(=O)Nc2nnn[nH]2)c(-c2ccccc2)s1)c1ncc[nH]1.O=CO [Compound 34],Ki,KPC-2,111 µM
same,NDM-1 % inhibition at stated concentration,NDM-1; at 1000 (uM),20% at 1000
same,inhibition at 1600 µM,OXA-48,35%
O=C(Nc1nnn[nH]1)[C@@H]1CCN(S(=O)(=O)c2cccc(C(F)(F)F)c2)C1 [Compound 37],Ki,CTX-M14,1000 µM
same,Ki,KPC-2,470 µM
same,NDM-1 % inhibition at stated concentration,NDM-1; at 1800 (uM),30% at 1800
O=C(Nc1nc(C(=O)Nc2nnn[nH]2)c(-c2ccccc2)s1)c1ncco1 [Compound 35],inhibition at 800 µM,OXA-48,20%
O=C(Nc1nnn[nH]1)[C@@H]1CCCN(C(=O)c2cccc(C(F)(F)F)c2)C1 [Compound 40],Ki,KPC-2,110 µM
same,NDM-1 % inhibition at stated concentration,NDM-1; at 1000 (uM),20% at 1000
same,inhibition at 4800 µM,OXA-48,35%
CC1(C(=O)Nc2nnn[nH]2)CN(C(=O)c2cccc(C(F)(F)F)c2)c2ccccc21 (centres unmarked) [Compound 31],Ki,KPC-2,354 µM
same,Ki,NDM-1,200 µM
"O=C(N[C@H]1CCCCN(c2nnn[nH]2)C1=O)c1cc(C(F)(F)F)cc2nc[nH]c12.O=CO [Compound 21, (S)—N-(2-oxo-1-(1H-tetrazol-5-yl)azepan-3-yl)-5-(trifluoromethyl)-1H-benzo[d]imidazole-7-carboxamide formate]",Ki,CTX-M14,236 µM
same,Ki,SHV-2,60 µM
same,KPC-2 % inhibition at stated concentration,KPC-2; at 1600 (uM),30% at 1600
CC(c1cccc(C(F)(F)F)c1)n1cc(C(=O)Nc2nnn[nH]2)c2ccccc21 (centres unmarked) [Compound 29],CTX-M14 % inhibition at stated concentration,CTX-M14; at 1900 (uM),50% at 1900
same,KPC-2 % inhibition at stated concentration,KPC-2; at 1900 (uM),50% at 1900
O=C(Nc1nnn[nH]1)[C@H]1CCN(S(=O)(=O)c2cccc(C(F)(F)F)c2)C1 [Compound 39],Ki,CTX-M14,2000 µM
same,Ki,KPC-2,1500 µM
same,NDM-1 % inhibition at stated concentration,NDM-1; at 1800 (uM),10% at 1800
O=C(Nc1nnn[nH]1)c1cn(S(=O)(=O)c2cccc(C(F)(F)F)c2)c2ccccc12 [Compound 27],Ki,KPC-2,300 µM
"O=C(Nc1nnn[nH]1)[C@@H]1CCCN(S(=O)(=O)c2cccc(C(F)(F)F)c2)C1 [Compound 9, (R)—N-(1H-tetrazol-5-yl)-1-((3-(trifluoromethyl)phenyl)sulfonyl)piperidine-3-carboxamide]",Ki,CTX-M14,243 µM
same,Ki,KPC-2,78 µM
same,inhibition at 4800 µM,OXA-48,20%
"O=C(Nc1nnn[nH]1)C(Nc1ccccc1)c1ccccc1 (centres unmarked) [Compound 25, 2-phenyl-2-(phenylamino)-N-(1H-tetrazol-5-yl)acetamide]",Ki,KPC-2,519 µM
same,Ki,NDM-1,652 µM
same,inhibition at 5000 µM,OXA-48,40%
O=C(Nc1nnn[nH]1)c1c[nH]c2ccccc12 [Compound 30],Ki,KPC-2,3000 µM
same,Ki,NDM-1,354 µM
O=C(CNc1ccccc1)Nc1nnn[nH]1 [Compound 42],Ki,KPC-2,1200 µM
O=C(Nc1nnn[nH]1)[C@@H]1CCN(C(=O)c2cccc(C(F)(F)F)c2)C1 [Compound 36],Ki,CTX-M14,2980 µM
same,Ki,KPC-2,2000 µM
same,Ki,NDM-1,48 µM
"O=C(Nc1nnn[nH]1)C1CN(C(=O)c2cccc(C(F)(F)F)c2)c2ccccc21 (centres unmarked) [Compound 2, N-(1H-tetrazol-5-yl)-1-(3-(trifluoromethyl)benzoyl)indoline-3-carboxamide]",Ki,KPC-2,1.2 µM
same,Ki,NDM-1,958 µM
"O=C(Nc1nc(C(=O)Nc2nnn[nH]2)c(-c2ccccc2)s1)c1nccs1 [Compound 6, N-(4-((1H-tetrazol-5-yl)carbamoyl)-5-phenylthiazol-2-yl)thiazole-2-carboxamide]",Ki,KPC-2,26 µM
same,inhibition at 4800 µM,OXA-48,50%
CC(=O)N1CC(C)(C(=O)Nc2nnn[nH]2)c2ccccc21 (centres unmarked) [Compound 32],CTX-M14 % inhibition at stated concentration,CTX-M14; at 4800 (uM),10% at 4800
same,KPC-2 % inhibition at stated concentration,KPC-2; at 4800 (uM),40% at 4800
same,Ki,NDM-1,156 µM
same,inhibition at 3900 µM,OXA-48,16%
"O=C(Nc1nnn[nH]1)C(Sc1ccccc1)c1ccccc1 (centres unmarked) [Compound 22, 2-phenyl-2-(phenylthio)-N-(1H-tetrazol-5-yl)acetamide]",Ki,KPC-2,26.5 µM
same,Ki,NDM-1,58 µM
CC1(C(=O)Nc2nnn[nH]2)CN(S(C)(=O)=O)c2ccccc21 (centres unmarked) [Compound 33],Ki,KPC-2,2700 µM
same,Ki,NDM-1,161 µM
same,inhibition at 3900 µM,OXA-48,20%
